Patent publication US20200002665A1 (Heliae Development, LLC, priority 2016, published 2020)
Read-outs that look alike come from different tables or passages of the source.

What was measured:
[1] = test system: Chlorella (HS26) cells; assay: pH drift of cultures suspended in different nitrogen sources (Example 1); format: cell-based; settings: after 24 hours, compared to a control; light, shaking 100 RPM; FIG. 10
Description: The Chlorella cultures were supplied with light, and shaking from a shaker table at 100 RPM. The pH drift of each culture was measured after 24 hours and compared to a control.

[2] = test system: Chlorella (HS26); settings: for total protein content: FIG. 29; for growth (cell dry weight over time): FIG. 26
Description: Cultures of Chlorella (HS26) were inoculated at 0.3 g/L in glass column bioreactors at a volume of 700 mL of BG-11 culture media and maintained at a temperature of 27° C. The mixotrophic cultures received aeration at a rate of 1 Liter per minute, an initial batch of 30 g glucose/L, and were supplied 270 micromoles of light using LED lights (LumiGrow, Inc., Emeryville, Calif.). In a first treatment, the culture was supplied with an initial batch of 3 g/L NaNO3 (“Nitrate” treatment), and the culture pH was controlled at a set point of 7.0 by a pH auxostat feed containing 0.50% HCl. In a second treatment, the culture was supplied with an initial batch of 3 g/L NaNO3 (“Nitrates” treatment), and the culture pH was controlled at a set point of 8.0 by a pH auxostat feed containing 0.50% HCl. […] Samples were taken daily to measure the cell dry weight, nitrogen concentration, and total protein.

[3] = test system: Chlorella (HS26); settings: for final day (day 4) cell dry weight: FIG. 16
Description: Cultures of Chlorella (HS26) were inoculated at 0.3 g/L in glass column bioreactors at a volume of 700 mL of BG-11 culture media and maintained at a temperature of 27° C. The mixotrophic cultures received an initial batch of 1 g/L NH4Cl, aeration at a rate of 1 Liter per minute, an initial batch of 40 g glucose/L, and were supplied 270 micromoles of light using LED lights (LumiGrow, Inc., Emeryville, Calif.). Treatments were conducted at culture medium pH values of 6.5, 7.0, 7.3, 7.5, 7.8, 8.0, and 8.5. The culture medium pH was controlled with a pH auxostat supplying a titrate of 0.5% NH4OH and 0.75% HCl at the designated set points. Samples were taken daily to measure the cell dry weight, nitrogen concentration, and total protein. Results are show in FIGS. 13-17.

[4] = test system: Schizochytrium limacinum; settings: pH 6.5
Excerpt: The heterotrophic cultures received aeration at a rate of 1 Liter per minute, and an initial batch of 80 g glycerol/L. In a first treatment, the culture was supplied with an initial batch of 20 g/L monosodium glutamate (“Glutamate” treatment), and the culture pH was controlled at a set point of 6.5 by a pH auxostat feed containing 1% HCl. […] Samples were taken daily to measure the cell dry weight, nitrogen concentration, and total protein. Results are show in FIGS. 30-33.

[5] = test system: Chlorella cultures; settings: 1 g N/L of NH4; mixotrophic, acetic acid as organic carbon source; FIG. 11
Excerpt: The Chlorella cultures productivity using either ammonium (NH4) or nitrates (NO3) as the nitrogen source in mixotrophic culture conditions (i.e., supply of light, supply of acetic acid as the organic carbon source) were then compared. The cultures received NH4 at a concentration of 0.13 g N/L, 0.25 g N/L, 0.5 g N/L, or 1 g N/L for the ammonium treatments. The cultures received NO3 at a concentration of 0.25 g N/L or 1 g N/L for the nitrate treatments. Samples were taken to measure cell dry weight at 0, 39, 86, and 161.5 hours.

[6] = test system: Chlorella (HS26)
Description: Cultures of Chlorella (HS26) were inoculated at 0.3 g/L in glass column bioreactors at a volume of 700 mL of BG-11 culture media and maintained at a temperature of 27° C. The mixotrophic cultures received aeration at a rate of 1 Liter per minute, an initial batch of 30 g glucose/L, and were supplied 270 micromoles of light using LED lights (LumiGrow, Inc., Emeryville, Calif.). In a first treatment, the culture was supplied with an initial batch of 3 g/L NaNO3 (“Nitrate” treatment), and the culture pH was controlled at a set point of 6.5 by a pH auxostat feed containing 0.50% HCl. In a second treatment, the culture was supplied with an initial batch of 3 g/L NaNO3 (“Nitrates” treatment), and the culture pH was controlled at a set point of 7.5 by a pH auxostat feed containing 0.50% HCl. […] Samples were taken daily to measure the cell dry weight, nitrogen concentration, and total protein.

[7] = test system: Chlorella (HS26); settings: pH 7.0
Description: Cultures of Chlorella (HS26) were inoculated at 0.3 g/L in glass column bioreactors at a volume of 700 mL of BG-11 culture media and maintained at a temperature of 27° C. The mixotrophic cultures received aeration at a rate of 1 Liter per minute, an initial batch of 30 g glucose/L, and were supplied 270 micromoles of light using LED lights (LumiGrow, Inc., Emeryville, Calif.). In a first treatment, the culture was supplied with an initial batch of 3 g/L NaNO3 (“Nitrate” treatment), and the culture pH was controlled at a set point of 7.0 by a pH auxostat feed containing 0.75% HCl. […] Samples were taken daily to measure the cell dry weight, nitrogen concentration, and total protein.

| SMILES | pH drift of culture [1] | total protein content ([2]; Ammonia culture grown at the higher pH (8.0)) | growth (cell dry weight over time) ([2]; Ammonia pH 7.0 treatment) | growth (cell dry weight over time) ([2]; Ammonia pH 8.0 treatment) | total protein content ([2]; Ammonia treatments pH 7.0 and 8.0 versus Nitrate treatments) | total protein on the final day (day 4) ([3]; culture pH 6.5 to 8.5, particularly above 7.5, FIG. 17) | accumulated protein (total protein content) ([3]; culture pH above 7.5, FIG. 15) | final day (day 4) cell dry weight ([3]; culture pH above 7.5) | growth (cell dry weight over time) ([3]; culture pH above 7.5, initial 1 g/L NH4Cl, 0.5% NH4OH titrant, FIG. 13) | final day (day 4) cell dry weight ([3]; culture pH of 7.5 and below) | growth (cell dry weight over time) ([4]; 1.0 g/L NH4Cl, 10% NH4OH feed, heterotrophic, glycerol, FIG. 30) | increase in protein yield ([4]; over the Glutamate treatment, FIG. 33) [%] | growth and productivity (cell dry weight) [5] | growth (cell dry weight over time) ([6]; Ammonia pH 6.5 treatment, among Ammonia and Nitrate treatments at pH 6.5 and 7.5, FIG. 22) | total protein content ([6]; Ammonia treatments pH 6.5 and 7.5 versus Nitrate treatments, FIG. 25) | growth (cell dry weight over time) ([7]; 1.0 g/L NH4Cl, 0.5% NH4OH feed, versus Nitrate treatment, FIG. 18) | increase in protein ([7]; compared to the Nitrate treatment, FIG. 21) [%] |
| --- | --- | --- | --- | --- | --- | --- | --- | --- | --- | --- | --- | --- | --- | --- | --- | --- | --- |
| O=[N+]([O-])[O-].[Na+] [sodium nitrate, reference compound] | increased in culture pH | – | – | – | – | – | – | – | – | – | – | – | – | – | – | – | – |
| N [Ammonia, ammonia] | – | highest resulting protein | highest resulting growth | impaired growth | more total protein than the Nitrate treatments | increased as the culture pH increased | increase in accumulated protein | decreased as the culture pH increased | impaired growth | substantially similar | higher resulting growth than the Glutamate treatment | 20 | suffered | greatest amount of growth | more protein than the Nitrate treatments | better growth than the Nitrate treatment | 15 |
| N.N.O=S(=O)(O)O [ammonium sulfate] | decreased in culture pH | – | – | – | – | – | – | – | – | – | – | – | – | – | – | – | – |
